pIC50, pKi: −log10 of the molar value. Where two headings read alike, the source gives them in different places.
Key:
rat MCH1 receptor = rat MCH1 receptor (Rattus norvegicus, UniProt P97639); assay: rMCH FLIPR calcium mobilization assay (CHOK1-Gqi cells); format: cell-based; parameters: expressed in transfected cells; host or cells: CHOK1-Gqi; details: CHOK1-Gqi cells, rat MCH1 receptor; 100 μM or less list; read-out: Ki in the rMCH FLIPR assay
Protocol: Pharmacological analyses were conducted using either a HT-PS100 device (Axiom Biotechnologies, San Diego, Calif.), which provides high-resolution dose-response fluorometric measurements of [Ca^++]i mobilization, or using a FLIPR® device (Molecular Devices, Sunnyvale, Calif.).
Materials: Pharmacological analysis was conducted using a FLIPR® device (Molecular Devices, Sunnyvale, Calif.). CHOK1-Gqi cells were stably transfected with the rat MCH1 receptor and maintained under G418 antibiotic pressure. FLIPR® assay buffer consisted of phenol red-free DMEM+2.5 mM probenecid. […]. Test compounds were prepared as 10 mM stocks in 100% DMSO and diluted to a top end working concentration of 10 μM in 96 well black, flat bottom, collagen-I coated plates (Becton Dickinson, Bedford, Mass.).
Methods: CHOK1-Gqi cells stably expressing MCH1R were maintained in Dulbeco's modified Eagle's medium (GIBCO/Life Technologies, Rockville, Md.) supplemented with 2 mM glutamine and 10% dialyzed fetal bovine serum (HyCLone, Logan, Utah) at 37° C., 5% CO2. Cells were harvested by 10′ treatment with Versene (GIBCO/Life Technologies) followed by trituration, washing twice with cold (4° C.) hybridoma medium (Serum/Protein free, with L-glutamine, sodium bicarbonate, MOPS buffer) (Sigma-Aldrich Corp, St. Louis, Mo.) and replated onto 96 well black, flat bottom, collagen-I coated plates to a density of 10,000 cells/well. The cells were then loaded with the fluorescent calcium indicator Fura-2 (Molecular Probes, Eugene, Oreg.) at 1.6 μM for 60′ at room temperature. The loaded cells were then washed twice with 90 μl/well of wash buffer (1×HBSS, 20 mM HEPES, 2.5 mM probenecid).
Receptor-stimulated intracellular calcium responses were detected using FLIPR® by monitoring increases in the Fura-2 fluorescence response.
Test compounds were screened for MCH1R activity in the FLIPR® for both agonist and antagonist action. Agonist mode challenges were conducted at a maximum gradient concentration of 1 μM. Antagonist activity was tested by 10 min pre-incubation of cells at a compound concentration of defined to be 300× the EC50 of MCH (typically 1 μM), with subsequent introduction of MCH at a concentration 5-fold of EC50 as determined in preliminary experiments. […].
Several fixed concentrations of antagonist compounds were prepared in 10-fold increments, and presented to the cells in a gradient of increasing MCH concentration. Values for compound pA2 were calculated by linear regression of MCH EC50s as a function of antagonist concentration.

[1] = target: T1, rat MCH 1 receptor (rMCH1R) (Rattus norvegicus, UniProt P97639); assay: 125I-MCH ligand binding assay, rMCH; details: HEK 293 membranes, 0.2 nM 125I native-MCH, read-out: IC50 in the rMCH binding assay
T1 construct: expressed in transfected cells; host or cells: HEK 293 (membranes)
In short: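 HEK293 membranes expressing rat or human MCH1R (100 µg tissue) were incubated for 90 min at 30 °C with 0.2 nM 125I-native-MCH and test compound in HEPES/MgCl2/BSA buffer with protease inhibitors, pH 7.4. Non-specific binding used 1 µM cold MCH. Filter-bound radioactivity gave IC50 by nonlinear regression.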

human MCH receptor = target: T2, human MCH receptor (Homo sapiens, UniProt Q99705); assay: hMCH FLIPR calcium mobilization assay; format: cell-based; details: 100 μM or less list; read-out: Ki in the hMCH FLIPR assay
T2 construct: expressed in transfected cells

[2] = target: T3, human MCH 1 receptor (hMCH1R) (Homo sapiens, UniProt Q99705); assay: 125I-MCH ligand binding assay, hMCH; details: HEK 293 membranes, 0.2 nM 125I native-MCH, read-out: IC50 in the hMCH binding assay
T3 construct: expressed in transfected cells; host or cells: HEK 293 (membranes)
Protocol: Human embryonic kidney cells (293 total) expressing either human, rat, or mouse MCH receptor were harvested from 150 mm culture dishes using PBS. Spinning at 1500 rpm for 2 minutes initially pelleted cells. The resulting pellet was then homogenized in 15 mL ice cold sucrose buffer (25 mM HEPES, 0.3 M sucrose, pH 7.4) with a motorized, glass fitted, Teflon® homogenizer. The homogenate was centrifuged at 48,000×g at 4° C. for 10 minutes, resuspended in 15 mL assay buffer (25 mM HEPES, 10 mM mgCl2, 0.2% BSA, 0.1 mg/mL STI, 0.1 mg/mL Pefabloc®, 1 μM Phosphoramidon, pH 7.4) with a Tissue-Tearor® (Biospec Products) and centrifuged again at 48,000×g for 10 minutes. The pellet was homogenized for a third time in 15 mL assay buffer using the Tissue-Tearor® and again centrifuged at 48,000×g for 10 minutes. The resulting pellet was resuspended in assay buffer at a wet weight concentration of 10-20 mg/mL.
Binding assays were determined as described below using mouse, rat or human MCH 1 receptors (mMCH1R, rMCH1R, and hMCH1R, respectively) expressed in HEK 293; IC50 values were calculated.
Binding assays were performed in 96-well U-bottom plates. Membranes (100 μg tissue) were incubated at 30° C. for 90 minutes in assay buffer with various peptides in the presence of 0.2 nM ^125I native-MCH (Perkin-Elmer Life Sciences, Boston, Mass.) in 100 μL total volume. Non-specific binding was assessed in the presence of 1 μM cold native-MCH. The reaction was terminated by rapid filtration through Unfilter-96 GF/C glass fiber filter plates (FilterMate® 196 Harvester, Packard Instrument Co., Meriden, Conn.) pre-soaked in PBS/0.5% BSA, followed by three washes with 300 μL ice-cold water. Bound radioactivity was determined using a TopCount® microplate scintillation and luminescence counter (Packard Instrument Co., Meriden, Conn.). Nonlinear regression analyses of drug concentration curves were performed using GraphPad Prism® (GraphPad Software, Inc., San Diego, Calif.).

T1 sequence (P97639 whole entry): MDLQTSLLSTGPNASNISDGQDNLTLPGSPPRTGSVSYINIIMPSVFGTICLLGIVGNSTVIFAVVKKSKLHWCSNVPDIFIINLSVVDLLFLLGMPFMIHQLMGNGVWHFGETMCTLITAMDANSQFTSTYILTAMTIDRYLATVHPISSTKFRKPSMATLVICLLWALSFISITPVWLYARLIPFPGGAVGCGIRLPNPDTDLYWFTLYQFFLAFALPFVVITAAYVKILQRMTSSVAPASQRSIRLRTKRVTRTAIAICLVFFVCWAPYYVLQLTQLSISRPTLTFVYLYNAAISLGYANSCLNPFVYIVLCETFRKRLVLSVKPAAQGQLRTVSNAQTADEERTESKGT
rat MCH1 receptor, sequence (P97639 whole entry): as above
T3 sequence (Q99705 whole entry): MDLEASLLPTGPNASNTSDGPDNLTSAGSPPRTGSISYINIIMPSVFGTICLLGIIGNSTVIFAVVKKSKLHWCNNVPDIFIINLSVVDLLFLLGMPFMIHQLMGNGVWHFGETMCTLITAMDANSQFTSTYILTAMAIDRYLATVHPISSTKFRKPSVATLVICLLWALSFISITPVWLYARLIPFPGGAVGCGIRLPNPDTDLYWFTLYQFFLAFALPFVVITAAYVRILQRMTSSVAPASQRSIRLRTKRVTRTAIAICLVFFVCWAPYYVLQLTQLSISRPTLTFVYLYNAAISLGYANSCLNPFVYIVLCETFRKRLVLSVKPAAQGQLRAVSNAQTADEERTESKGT
T2 sequence (Q99705 whole entry): as above

pKi (rat MCH1 receptor) | pIC50 ([1]; 100 μM or less list) | pKi (human MCH receptor) | pIC50 ([2]; 100 nM or less list) | pIC50 ([2]; 100 μM or less list) | pIC50 ([1]; 100 nM or less list) | Structure (SMILES)
≥ 4.00 | ≥ 4.00 | ≥ 4.00 | ≥ 7.00 | ≥ 4.00 |  | C(=C\c1ccccc1)/CN1CCN([C@@H](c2ccccc2)c2nnnn2-c2ccc3[nH]ccc3c2)CC1 (racemic) [Compound 20]
≥ 4.00 |  | ≥ 4.00 |  | ≥ 4.00 |  | Cc1cccc(C)c1-n1nnnc1[C@H](c1cccc(Oc2cc(Cl)cc(Cl)c2)c1)N1CCN(C/C=C/c2ccccc2)CC1 (racemic) [Compound 87, 1-{[3-(3,5-dichloro-phenoxy)-phenyl]-[1-(2,6-dimethylphenyl)-1H-tetrazol-5-yl]methyl}-4-(3-phenylallyl)piperazine]
≥ 4.00 | ≥ 4.00 | ≥ 4.00 |  | ≥ 4.00 |  | Cc1cccc(C)c1-n1nnnc1[C@H](c1cccc(-c2ccccc2)c1)N1CCN(C/C=C/c2ccccc2)CC1 (racemic) [Compound 143, 1-{biphenyl-3-yl-[1-(2,6-dimethylphenyl)-1H-tetrazol-5-yl]methyl}-4-(3-phenylallyl)piperazine]
≥ 4.00 | ≥ 4.00 | ≥ 4.00 | ≥ 7.00 | ≥ 4.00 | ≥ 7.00 | Cc1cccc(C)c1-n1nnnc1[C@H](c1cccc(C(F)(F)F)c1)N1CCN(CC=C(c2ccccc2)c2ccccc2)CC1 (racemic) [Compound 144, 1-[[1-(2,6-dimethylphenyl)-1H-tetrazol-5-yl]-(3-trifluoromethylphenyl)methyl]-4-(3,3-diphenylallyl)piperazine]
≥ 4.00 | ≥ 4.00 | ≥ 4.00 |  | ≥ 4.00 |  | COc1ccc(/C=C/CN2CCN([C@@H](c3cccc(C(F)(F)F)c3)c3nnnn3-c3c(C)cccc3C)CC2)cc1 (racemic) [Compound 147, 1-[[1-(2,6-dimethylphenyl)-1H-tetrazol-5-yl]-(3-trifluoromethylphenyl)methyl]-4-[3-(4-methoxyphenyl)allyl]piperazine]
≥ 4.00 | ≥ 4.00 | ≥ 4.00 |  | ≥ 4.00 |  | Cc1cccc(C)c1-n1nnnc1[C@H](c1cccc(C(F)(F)F)c1)N1CCN(Cc2cc3ccccc3n2C)CC1 (racemic) [Compound 148, 2-{4-[[1-(2,6-dimethylphenyl)-1H-tetrazol-5-yl]-(3-trifluoromethylphenyl)methyl]piperazin-1-ylmethyl}-1-methyl-1H-indole]
≥ 4.00 | ≥ 4.00 | ≥ 4.00 |  | ≥ 4.00 |  | Cc1cccc(C)c1-n1nnnc1[C@H](c1cccc(C(F)(F)F)c1)N1CCN(Cc2c[nH]c3ccccc23)CC1 (racemic) [Compound 150, 3-{4-[[1-(2,6-dimethylphenyl)-1H-tetrazol-5-yl]-(3-trifluoromethylphenyl)methyl]piperazin-1-ylmethyl}-1H-indole]
≥ 4.00 | ≥ 4.00 | ≥ 4.00 |  | ≥ 4.00 |  | Cc1cccc(C)c1-n1nnnc1[C@H](c1cccc(C(F)(F)F)c1)N1CCN(C/C=C/c2ccccc2O)CC1 (racemic) [Compound 151, 2-(3-{4-[[1-(2,6-dimethylphenyl)-1H-tetrazol-5-yl]-(3-trifluoromethylphenyl)methyl]piperazin-1-yl}propenyl)phenol]
≥ 4.00 | ≥ 4.00 | ≥ 4.00 |  | ≥ 4.00 |  | Cc1cccc(C)c1-n1nnnc1[C@H](c1cccc(C#N)c1)N1CCN(C/C=C/c2ccccc2)CC1 (stereo in doubt) [Compound 133, 3-{[1-(2,6-dimethylphenyl)-1H-tetrazol-5-yl]-[4-(3-phenylallyl)piperazin-1-yl]methyl}benzonitrile]
≥ 4.00 | ≥ 4.00 | ≥ 4.00 | ≥ 7.00 | ≥ 4.00 | ≥ 7.00 | Cc1cccc(C)c1-n1nnnc1[C@@H](c1ccc(-n2ccnc2)cc1)N1CCN(C/C=C/c2ccccc2)CC1 (stereo in doubt) [Compound 134, 1-[[1-(2,6-dimethylphenyl)-1H-tetrazol-5-yl]-(4-imidazol-1-ylphenyl)methyl]-4-(3-phenylallyl)piperazine]
